Laboratory results published in patent publication US20040171613A1, “Therapeutic agent for non-immediate type allergic diseases” (JAPAN TOBACCO INC., priority 2001, published 2004).

Experiments:
mouse ear = test: ear swelling induced by application of CB2 agonist or arachidonic acid; assay type: in vivo; details: mouse, in vivo
Procedure: Therefore, 2-arachidonoylglycerol ether (2-AG-E), the stable form of an endogenous ligand candidate 2-arachidonoylglycerol, and a specific CB2 agonist HU-308 were examined whether they directly induce ear swelling and compared to the ear swelling induced by arachidonic acid (AA).
Synthetically produced 2-AG-E and HU-308 were prepared with acetone to 1 or 10% (w/v) and 10% (w/v), respectively, and AA (Sigma) was prepared with acetone to 1.25% (w/v), on needed basis. 10 μL each of these substances was applied on each side of the left ear.

[1] = test system: wild-type and CB2-deficient mice; test: 2-AG-E-induced ear swelling in CB2-deficient mice; assay type: in vivo, mouse
Procedure: As described under the item of “7. IgE-dependent ear swelling in CB2-deficient mice”, female CB2-KO mice and female WT mice were used as experimental animals.
10 μL of 2-AG-E (100 mg/mL acetone) was applied on each side of the left ears of the mice on the first day of experiment.
The swelling of the ear was measured over time before and after the application of 2-AG-E using a dial thickness gauge. The difference between the values measured before and after the antigen application was defined as the degree of ear swelling. Then, AUC (area under the curve: the degree of ear swelling ×time) was determined from the changes of the degree of ear swelling with the time course, and given as mean ± standard error (S.E.). Student's t-test was used in the statistical treatment. A significance level less than 5% was assumed to be significant.

[2] = test system: WBB6F1-+/+ and WBB6F1-W/Wv mice; test: 2-AG-E-induced ear swelling in mast cell-deficient mice; assay type: in vivo, mouse; details: topical 2-AG-E 100 mg/mL
Procedure: The degree of allergic symptoms was examined in mice deficient (partially deficient) of mast cells, which cells are considered to largely contribute to allergic reactions.
Female mice of WBB6F1-+/+ (normal mouse) strain and WBB6F1-W/W^v (mast cell-deficient mouse) strain were purchased from Japan SLC, Inc. and used as experimental animals.
10 μL 2-AG-E (100 mg/mL acetone) was applied on each side of the left ears of the mice on the first day of experiment.
The swelling of the ear was measured over time before and after the application of 2-AG-E using a dial thickness gauge. The difference between the values measured before and after the antigen application was defined as the degree of ear swelling. Then, AUC was determined from the changes in the degree of ear swelling with the time course and given as mean ± standard error (S.E.). Student's t-test was used in the statistical treatment. A significance level less than 5% was assumed to be significant.

CB2 = CB2 (Homo sapiens, UniProt P34972); test: cAMP production in forskolin-stimulated hCB2-expressing CHO cells; assay type: cell-based; design: expressed in transfected cells; host or cells: CHO cells
CB2, sequence (P34972 whole entry): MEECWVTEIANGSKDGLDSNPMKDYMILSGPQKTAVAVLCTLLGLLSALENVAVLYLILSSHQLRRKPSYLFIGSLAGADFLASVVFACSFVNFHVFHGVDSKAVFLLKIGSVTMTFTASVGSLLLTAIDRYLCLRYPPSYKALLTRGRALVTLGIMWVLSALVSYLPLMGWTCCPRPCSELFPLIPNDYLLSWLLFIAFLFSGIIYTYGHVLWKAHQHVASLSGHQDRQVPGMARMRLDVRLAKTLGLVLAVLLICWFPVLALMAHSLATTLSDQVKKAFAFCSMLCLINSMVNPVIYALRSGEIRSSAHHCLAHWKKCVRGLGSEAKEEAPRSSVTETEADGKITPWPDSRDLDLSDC

CCCCC/C=C\C/C=C\C/C=C\C/C=C\CCCCOC(CO)CO [Compound 2-AG-E, 2-arachidonoylglycerol ether]
ear swelling induced by application on the ear (mouse ear): concentration-dependent ear swelling | time of peak ear swelling after the application (mouse ear): 1 to 2 h | 2-AG-E-induced dermatitis, CB2-deficient mice, very late phase ([1]; CB2-KO): no significant inflammation was observed | 2-AG-E-induced dermatitis, CB2-deficient mice, early phase ([1]; CB2-KO, topical 2-AG-E 100 mg/mL): developed dermatitis in the early phase | 2-AG-E-induced dermatitis, CB2-deficient mice, late phase ([1]; CB2-KO, vs wild-type): inflammation was milder in the late phase | 2-AG-E-induced dermatitis (ear swelling), wild-type mice ([1]; wild-type C57BL/6 J, topical 2-AG-E 100 mg/mL): developed dermatitis in the very late phase in addition to the early phase and late phase | 2-AG-E-induced dermatitis, mast cell-deficient (WBB6F1-W/Wv) mice [2]: developed dermatitis | 2-AG-E-induced dermatitis, wild-type (WBB6F1-+/+) mice ([2]; vs mast cell-deficient mice): more severe dermatitis | forskolin-stimulated cAMP production (CB2): suppress the forskolin-stimulated cAMP production | functional character at CB2 (inverse agonist / agonist) (CB2): agonists
